From ChEMBL document CHEMBL1201862, “PubChem BioAssay data set” (2004)
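1) Cells in 96-well plates. 2) Compound, 48 h, 5 concentrations. 3) Linear interpolation between surrounding doses. 4) Unreached endpoint = highest concentration. Here, GI50 denotes the concentration required for 50% inhibition of growth.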 Active and inactive are the calls of the source. No stated cut-off is given here; in the data, active = GI50 up to about 1.1 µM and inactive = higher.

Key:
Assay in all cases: DTP human tumour cell line panel, 48 h
786-0 = tested on: 786-0
A498 = tested on: A498
A549 = tested on: A549
ACHN = tested on: ACHN
BT-549 = tested on: BT-549
CAKI-1 = tested on: CAKI-1
CCRF-CEM = tested on: CCRF-CEM
EKVX = tested on: EKVX
HCC 2998 = tested on: HCC 2998
HCT-15 = tested on: HCT-15
HL-60 = tested on: HL-60
HOP-92 = tested on: HOP-92
HT-29 = tested on: HT-29
Hs-578T = tested on: Hs-578T
IGROV-1 = tested on: IGROV-1
K562 = tested on: K562
KM12 = tested on: KM12
LOX IMVI = tested on: LOX IMVI
M14 = tested on: M14
MCF7 = tested on: MCF7
MOLT-4 = tested on: MOLT-4
NCI-H226 = tested on: NCI-H226
NCI-H23 = tested on: NCI-H23
NCI-H460 = tested on: NCI-H460
NCI/ADR-RES = tested on: NCI/ADR-RES
OVCAR-3 = tested on: OVCAR-3
OVCAR-4 = tested on: OVCAR-4
OVCAR-5 = tested on: OVCAR-5
OVCAR-8 = tested on: OVCAR-8
PC-3 = tested on: PC-3
RPMI-8226 = tested on: RPMI-8226
RXF 393 = tested on: RXF 393
SF-268 = tested on: SF-268
SF-539 = tested on: SF-539
SK-MEL-28 = tested on: SK-MEL-28
SK-MEL-5 = tested on: SK-MEL-5
SK-OV-3 = tested on: SK-OV-3
SN12C = tested on: SN12C
SNB-19 = tested on: SNB-19
SNB-75 = tested on: SNB-75
SR = tested on: SR
SW-620 = tested on: SW-620
TK-10 = tested on: TK-10
U-251 = tested on: U-251
UACC-62 = tested on: UACC-62
UO-31 = tested on: UO-31
COLO 205 = tested on: COLO 205
DU-145 = tested on: DU-145
HCT-116 = tested on: HCT-116
HOP-62 = tested on: HOP-62
MDA-MB-231 = tested on: MDA-MB-231
MDA-MB-435 = tested on: MDA-MB-435
Malme-3M = tested on: Malme-3M
NCI-H522 = tested on: NCI-H522
SF-295 = tested on: SF-295
T47D = tested on: T47D
UACC-257 = tested on: UACC-257

Measured: GI50

O=C1CCCC2=C1CC1=C(CCCC1=O)N2c1cccc2ccccc12
66.7 µM: HCT-15
inactive: 786-0 57.1 µM | A498 > 100 µM | A549 > 100 µM | ACHN > 100 µM | BT-549 26.8 µM | CAKI-1 > 100 µM | CCRF-CEM 47.3 µM | EKVX > 100 µM | HCC 2998 > 100 µM | HL-60 17 µM | HOP-92 33 µM | HT-29 > 100 µM | Hs-578T 33.8 µM | IGROV-1 > 100 µM | K562 44 µM | KM12 > 100 µM | LOX IMVI > 100 µM | M14 > 100 µM | MCF7 41.1 µM | MOLT-4 78 µM | NCI-H226 > 100 µM | NCI-H23 52.5 µM | NCI-H460 > 100 µM | NCI/ADR-RES > 100 µM | OVCAR-3 > 100 µM | OVCAR-4 > 100 µM | OVCAR-5 > 100 µM | OVCAR-8 69.2 µM | PC-3 > 100 µM | RPMI-8226 > 100 µM | RXF 393 10.9 µM | SF-268 45.1 µM | SF-539 > 100 µM | SK-MEL-28 > 100 µM | SK-MEL-5 85.3 µM | SK-OV-3 > 100 µM | SN12C > 100 µM | SNB-19 75 µM | SNB-75 29.1 µM | SR > 100 µM | SW-620 > 100 µM | TK-10 > 100 µM | U-251 61 µM | UACC-62 64.1 µM | UO-31 > 100 µM

CC(=O)[C@@H]1C/C(=C\OCc2ccccc2)O[C@H]1C
inactive: 786-0 > 100 µM | A498 > 100 µM | A549 > 100 µM | ACHN > 100 µM | BT-549 > 100 µM | CAKI-1 > 100 µM | COLO 205 > 100 µM | DU-145 > 100 µM | EKVX > 100 µM | HCT-116 > 100 µM | HOP-62 > 100 µM | HOP-92 > 100 µM | HT-29 > 100 µM | IGROV-1 > 100 µM | K562 54 µM | KM12 > 100 µM | LOX IMVI 61.2 µM | M14 > 100 µM | MDA-MB-231 > 100 µM | MDA-MB-435 > 100 µM | MOLT-4 > 100 µM | Malme-3M > 100 µM | NCI-H226 > 100 µM | NCI-H23 > 100 µM | NCI-H460 > 100 µM | NCI-H522 > 100 µM | NCI/ADR-RES > 100 µM | OVCAR-3 > 100 µM | OVCAR-4 > 100 µM | OVCAR-5 > 100 µM | OVCAR-8 > 100 µM | RPMI-8226 > 100 µM | RXF 393 > 100 µM | SF-268 > 100 µM | SF-295 > 100 µM | SF-539 > 100 µM | SK-MEL-28 > 100 µM | SK-MEL-5 > 100 µM | SK-OV-3 > 100 µM | SN12C > 100 µM | SNB-19 > 100 µM | SNB-75 > 100 µM | SW-620 > 100 µM | T47D > 100 µM | TK-10 > 100 µM | U-251 > 100 µM | UACC-257 > 100 µM | UO-31 > 100 µM
> 100 µM: HCT-15
